Reference: PubChem BioAssay (NCI)
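GI50: concentration for 50% inhibition of growth. At the TGI there is no net growth.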

Legend:
Experiment in all cases: NCI anticancer screen, dose series, 384-well format
A549 NSCLC = system: A549 NSCLC
UACC-257 melanoma = system: UACC-257 melanoma
HL-60(TB) leukemia = system: HL-60(TB) leukemia
HS 578T breast = system: HS 578T breast
KM12 colon = system: KM12 colon
HCC-2998 colon = system: HCC-2998 colon
OVCAR-3 ovarian = system: OVCAR-3 ovarian
IGROV1 ovarian = system: IGROV1 ovarian
SNB-75 CNS = system: SNB-75 CNS
SF-539 CNS = system: SF-539 CNS
M14 melanoma = system: M14 melanoma
SK-MEL-5 melanoma = system: SK-MEL-5 melanoma
NCI-H460 NSCLC = system: NCI-H460 NSCLC
UO-31 renal = system: UO-31 renal
MALME-3M melanoma = system: MALME-3M melanoma
SK-OV-3 ovarian = system: SK-OV-3 ovarian
SR leukemia = system: SR leukemia
K-562 leukemia = system: K-562 leukemia
HOP-62 NSCLC = system: HOP-62 NSCLC
OVCAR-5 ovarian = system: OVCAR-5 ovarian
OVCAR-8 ovarian = system: OVCAR-8 ovarian
CCRF-CEM leukemia = system: CCRF-CEM leukemia
DU-145 prostate = system: DU-145 prostate
RPMI-8226 leukemia = system: RPMI-8226 leukemia
NCI-H226 lung = system: NCI-H226 lung
SK-MEL-28 melanoma = system: SK-MEL-28 melanoma
EKVX NSCLC = system: EKVX NSCLC
SW-620 colon = system: SW-620 colon
SN12C renal = system: SN12C renal
MDA-MB-231 breast = system: MDA-MB-231 breast
MDA-MB-435 melanoma = system: MDA-MB-435 melanoma
LOX IMVI melanoma = system: LOX IMVI melanoma
NCI/ADR-RES ovarian = system: NCI/ADR-RES ovarian
OVCAR-4 ovarian = system: OVCAR-4 ovarian
MCF7 breast = system: MCF7 breast
UACC-62 melanoma = system: UACC-62 melanoma
SF-295 CNS = system: SF-295 CNS
HCT-15 colon = system: HCT-15 colon
RXF 393 renal = system: RXF 393 renal
786-0 renal = system: 786-0 renal
HT29 colon = system: HT29 colon
BT-549 breast = system: BT-549 breast
SNB-19 CNS = system: SNB-19 CNS
TK-10 renal = system: TK-10 renal
CAKI-1 renal = system: CAKI-1 renal
NCI-H23 lung = system: NCI-H23 lung
MDA-MB-468 breast = system: MDA-MB-468 breast
SF-268 CNS = system: SF-268 CNS
MOLT-4 leukemia = system: MOLT-4 leukemia
T-47D breast = system: T-47D breast
COLO 205 colon = system: COLO 205 colon
NCI-H522 lung = system: NCI-H522 lung
PC-3 prostate = system: PC-3 prostate
A498 renal = system: A498 renal
NCI-H322M lung = system: NCI-H322M lung
HOP-92 NSCLC = system: HOP-92 NSCLC
ACHN renal = system: ACHN renal

## CC(=O)Nc1nc(C)c(-c2cc3c(c(S(C)(=O)=O)c2)C(=O)N([C@@H](C)C2CC2)C3)s1
A549 NSCLC
  GI50: 33.6 µM
  TGI: > 100 µM
UACC-257 melanoma
  GI50: 27.2 µM
  TGI: > 100 µM
HL-60(TB) leukemia
  GI50: 13 µM
  TGI: 33.3 µM
HS 578T breast
  GI50: 17.5 µM
  TGI: 51.4 µM
KM12 colon
  GI50: 42.6 µM
  TGI: > 100 µM
HCC-2998 colon
  GI50: 51.3 µM
  TGI: > 100 µM
OVCAR-3 ovarian
  GI50: 26.5 µM
  TGI: > 100 µM
IGROV1 ovarian
  GI50: 22.6 µM
  TGI: 54.8 µM
SNB-75 CNS
  GI50: 28.6 µM
  TGI: > 100 µM
SF-539 CNS
  GI50: 31.5 µM
  TGI: > 100 µM
M14 melanoma
  GI50: 31.7 µM
  TGI: > 100 µM
SK-MEL-5 melanoma
  GI50: 15 µM
  TGI: 41.4 µM
NCI-H460 NSCLC
  GI50: 30 µM
  TGI: > 100 µM
UO-31 renal
  GI50: 31.6 µM
  TGI: > 100 µM
MALME-3M melanoma
  GI50: 14.9 µM
  TGI: 57.1 µM
SK-OV-3 ovarian
  GI50: 19.3 µM
  TGI: 48.5 µM
SR leukemia
  GI50: 17.3 µM
  TGI: 43.8 µM
K-562 leukemia
  GI50: 29.1 µM
  TGI: > 100 µM
HOP-62 NSCLC
  GI50: 30.4 µM
  TGI: > 100 µM
OVCAR-5 ovarian
  GI50: 31.7 µM
  TGI: > 100 µM
OVCAR-8 ovarian
  GI50: 48 µM
  TGI: > 100 µM
CCRF-CEM leukemia
  GI50: 0.0269 µM
  TGI: 11.7 µM
DU-145 prostate
  GI50: 34.9 µM
  TGI: > 100 µM
RPMI-8226 leukemia
  GI50: 19.9 µM
  TGI: 40.8 µM
NCI-H226 lung
  GI50: 35.7 µM
  TGI: > 100 µM
SK-MEL-28 melanoma
  GI50: 22.8 µM
  TGI: > 100 µM
EKVX NSCLC
  GI50: 42.1 µM
  TGI: > 100 µM
SW-620 colon
  GI50: > 100 µM
  TGI: > 100 µM
SN12C renal
  GI50: 25.1 µM
  TGI: 91.3 µM
MDA-MB-231 breast
  GI50: 22.3 µM
  TGI: > 100 µM
MDA-MB-435 melanoma
  GI50: 54.4 µM
  TGI: > 100 µM
LOX IMVI melanoma
  GI50: 28.2 µM
  TGI: 86.3 µM
NCI/ADR-RES ovarian
  GI50: 77.4 µM
  TGI: > 100 µM
OVCAR-4 ovarian
  GI50: 20.8 µM
  TGI: 77 µM
MCF7 breast
  GI50: 24.6 µM
  TGI: > 100 µM
UACC-62 melanoma
  GI50: 29.1 µM
  TGI: > 100 µM
SF-295 CNS
  GI50: 27.9 µM
  TGI: > 100 µM
HCT-15 colon
  GI50: 28.6 µM
  TGI: 93.4 µM
RXF 393 renal
  GI50: 30.9 µM
  TGI: > 100 µM
786-0 renal
  GI50: 34.7 µM
  TGI: > 100 µM
HT29 colon
  GI50: 29.8 µM
  TGI: > 100 µM
BT-549 breast
  GI50: 36.9 µM
  TGI: > 100 µM
SNB-19 CNS
  GI50: 82.2 µM
  TGI: > 100 µM
TK-10 renal
  GI50: 31.8 µM
  TGI: > 100 µM
CAKI-1 renal
  GI50: 25.5 µM
  TGI: 77.6 µM
NCI-H23 lung
  GI50: 28.7 µM
  TGI: > 100 µM
MDA-MB-468 breast
  GI50: 15.5 µM
  TGI: 45 µM
SF-268 CNS
  GI50: 34.7 µM
  TGI: > 100 µM
MOLT-4 leukemia
  GI50: 17.5 µM
  TGI: 33.1 µM
T-47D breast
  GI50: 6.04 µM
  TGI: 37.3 µM
COLO 205 colon
  GI50: 38.8 µM
  TGI: > 100 µM
NCI-H522 lung
  GI50: 25.7 µM
  TGI: 78.2 µM
PC-3 prostate
  GI50: 39.6 µM
  TGI: > 100 µM
A498 renal
  GI50: 19.3 µM
  TGI: 80.4 µM
NCI-H322M lung
  GI50: 30.3 µM
  TGI: > 100 µM
HOP-92 NSCLC
  GI50: 32.1 µM
  TGI: > 100 µM
ACHN renal
  GI50: 31 µM
  TGI: > 100 µM
